Experimental data as given in ChEMBL document CHEMBL3885861, “Open TG-GATES”.

Species: Rattus norvegicus
Test: Open TG-GATES - Regimen: Single
Format: toxicity, organism-based, Sprague-Dawley
Design: regimen Single, gender Male, age 6 weeks
Details: in vivo, po, route gavage; for Bas / Eos / Fbg / Hb / Ht / Lym / MCHC / MCV / Mono / Neu / Plat / RBC / Ret / WBC: tissue Blood; for KIDNEY_TOTAL: tissue Kidney; for LIVER: tissue Liver; for ALT / AST / BUN / CRE / Ca / Cl / DBIL / GLC / IP / K / LDH / Na / PL / RALB / TBIL / TC / TP / gamma-GTP: tissue Plasma
[1] = 5 mg/kg, 3 h, dose level Middle
[2] = 5 mg/kg, 6 h, dose level Middle
[3] = 5 mg/kg, 9 h, dose level Middle
[4] = 5 mg/kg, 24 h, dose level Middle
[5] = 50 mg/kg, 24 h, dose level High

## C[C@@H]1C[C@H]2[C@@H]3CCC4=CC(=O)C=C[C@]4(C)[C@@]3(F)[C@@H](O)C[C@]2(C)[C@@]1(O)C(=O)CO [DEXAMETHASONE]
[1]
  TERMINAL_BW: 210 g
  Bas: 0%
  Eos: 0.6%
  Fbg: 235.2 mg/dL
  Hb: 13.2 g/dL
  Ht: 40.3%
  Lym: 71.4%
  MCHC: 32.8%
  MCV: 65 fL
  Mono: 2.4%
  Neu: 25.6%
  Plat: 121.2 x10_4/uL
  RBC: 620.6 x10_4/ul
  Ret: 9.6%
  WBC: 46.5 x10_2/uL
  KIDNEY_TOTAL: 0.6 g
  LIVER: 10.6 g
  ALT: 41 IU/L
  AST: 77.8 IU/L
  BUN: 15 mg/dL
  CRE: 0.4 mg/dL
  Ca: 11.4 mg/dL
  Cl: 101.8 meq/L
  DBIL: 0.014 mg/dL
  GLC: 193.4 mg/dL
  IP: 11.9 mg/dL
  K: 4.1 meq/L
  LDH: 103.8 IU/L
  Na: 141.2 meq/L
  PL: 157.4 mg/dL
  RALB: 4.2 g/dL
  TBIL: 0.046 mg/dL
  TC: 91.2 mg/dL
  TP: 6 g/dL
  gamma-GTP: 0.4 IU/L
[2]
  TERMINAL_BW: 205.5 g
  Bas: 0%
  Eos: 0.6%
  Fbg: 243.6 mg/dL
  Hb: 12.9 g/dL
  Ht: 39.2%
  Lym: 59.4%
  MCHC: 32.8%
  MCV: 64.4 fL
  Mono: 3.6%
  Neu: 36.6%
  Plat: 129.5 x10_4/uL
  RBC: 609.4 x10_4/ul
  Ret: 6.7%
  WBC: 27.3 x10_2/uL
  KIDNEY_TOTAL: 0.6 g
  LIVER: 11.2 g
  ALT: 39.8 IU/L
  AST: 82.6 IU/L
  BUN: 17.2 mg/dL
  CRE: 0.4 mg/dL
  Ca: 11.6 mg/dL
  Cl: 103.2 meq/L
  DBIL: 0.01 mg/dL
  GLC: 223.8 mg/dL
  IP: 7.7 mg/dL
  K: 4.1 meq/L
  LDH: 84.4 IU/L
  Na: 138.8 meq/L
  PL: 153.6 mg/dL
  RALB: 4.5 g/dL
  TBIL: 0.036 mg/dL
  TC: 101.4 mg/dL
  TP: 6.3 g/dL
  gamma-GTP: 0 IU/L
[3]
  TERMINAL_BW: 199.5 g
  Bas: 0%
  Eos: 0.2%
  Fbg: 246 mg/dL
  Hb: 13.6 g/dL
  Ht: 41.5%
  Lym: 37%
  MCHC: 32.7%
  MCV: 64.4 fL
  Mono: 1.4%
  Neu: 61.2%
  Plat: 122.1 x10_4/uL
  RBC: 645.2 x10_4/ul
  Ret: 6%
  WBC: 18.2 x10_2/uL
  KIDNEY_TOTAL: 0.4 g
  LIVER: 10.8 g
  ALT: 39.4 IU/L
  AST: 76.8 IU/L
  BUN: 19.4 mg/dL
  CRE: 0.4 mg/dL
  Ca: 10.9 mg/dL
  Cl: 102 meq/L
  DBIL: 0.008 mg/dL
  GLC: 226 mg/dL
  IP: 7.2 mg/dL
  K: 3.9 meq/L
  LDH: 104.4 IU/L
  Na: 138.6 meq/L
  PL: 179.4 mg/dL
  RALB: 4.6 g/dL
  TBIL: 0.032 mg/dL
  TC: 118 mg/dL
  TP: 6.7 g/dL
  gamma-GTP: 0.8 IU/L
[4]
  TERMINAL_BW: 208.2 g
  Bas: 0%
  Eos: 1%
  Fbg: 232.4 mg/dL
  Hb: 13.4 g/dL
  Ht: 40.4%
  Lym: 46.8%
  MCHC: 33.1%
  MCV: 63.3 fL
  Mono: 9.2%
  Neu: 43.2%
  Plat: 136.7 x10_4/uL
  RBC: 638.4 x10_4/ul
  Ret: 5.4%
  WBC: 47.5 x10_2/uL
  KIDNEY_TOTAL: 0.4 g
  LIVER: 13.2 g
  ALT: 37.2 IU/L
  AST: 83.4 IU/L
  BUN: 17.6 mg/dL
  CRE: 0.4 mg/dL
  Ca: 11.4 mg/dL
  Cl: 99.4 meq/L
  DBIL: 0.022 mg/dL
  GLC: 205 mg/dL
  IP: 6.8 mg/dL
  K: 5.1 meq/L
  LDH: 96 IU/L
  Na: 137.8 meq/L
  PL: 249.2 mg/dL
  RALB: 4.8 g/dL
  TBIL: 0.044 mg/dL
  TC: 119.2 mg/dL
  TP: 6.8 g/dL
  gamma-GTP: 0 IU/L
50 mg/kg, 3 h, dose level High
  TERMINAL_BW: 214.6 g
  Bas: 0%
  Eos: 0.8%
  Fbg: 244.4 mg/dL
  Hb: 13.1 g/dL
  Ht: 40.1%
  Lym: 58%
  MCHC: 32.5%
  MCV: 63.1 fL
  Mono: 2.8%
  Neu: 38.8%
  Plat: 125.2 x10_4/uL
  RBC: 635.6 x10_4/ul
  Ret: 7.4%
  WBC: 35.1 x10_2/uL
  KIDNEY_TOTAL: 0.6 g
  LIVER: 10.7 g
  ALT: 40.4 IU/L
  AST: 75.2 IU/L
  BUN: 15.6 mg/dL
  CRE: 0.4 mg/dL
  Ca: 11.3 mg/dL
  Cl: 103.2 meq/L
  DBIL: 0.012 mg/dL
  GLC: 198.8 mg/dL
  IP: 11.5 mg/dL
  K: 3.9 meq/L
  LDH: 85.4 IU/L
  Na: 142 meq/L
  PL: 152.8 mg/dL
  RALB: 4.3 g/dL
  TBIL: 0.04 mg/dL
  TC: 91 mg/dL
  TP: 6.1 g/dL
  gamma-GTP: 1 IU/L
50 mg/kg, 6 h, dose level High
  TERMINAL_BW: 208.4 g
  Bas: 0%
  Eos: 0%
  Fbg: 244.4 mg/dL
  Hb: 13.3 g/dL
  Ht: 40.4%
  Lym: 61.8%
  MCHC: 32.9%
  MCV: 63.8 fL
  Mono: 3.4%
  Neu: 34.4%
  Plat: 119.3 x10_4/uL
  RBC: 634 x10_4/ul
  Ret: 7.1%
  WBC: 26.8 x10_2/uL
  KIDNEY_TOTAL: 0.5 g
  LIVER: 10.5 g
  ALT: 40.8 IU/L
  AST: 83 IU/L
  BUN: 16.2 mg/dL
  CRE: 0.4 mg/dL
  Ca: 11.4 mg/dL
  Cl: 104.6 meq/L
  DBIL: 0.01 mg/dL
  GLC: 215.2 mg/dL
  IP: 8.1 mg/dL
  K: 4.1 meq/L
  LDH: 80.6 IU/L
  Na: 140.2 meq/L
  PL: 157.6 mg/dL
  RALB: 4.6 g/dL
  TBIL: 0.036 mg/dL
  TC: 106.4 mg/dL
  TP: 6.5 g/dL
  gamma-GTP: 0 IU/L
50 mg/kg, 9 h, dose level High
  TERMINAL_BW: 200.5 g
  Bas: 0%
  Eos: 0%
  Fbg: 244.6 mg/dL
  Hb: 13.5 g/dL
  Ht: 41%
  Lym: 42.8%
  MCHC: 32.9%
  MCV: 64.5 fL
  Mono: 2%
  Neu: 55.2%
  Plat: 121.9 x10_4/uL
  RBC: 636.2 x10_4/ul
  Ret: 5.4%
  WBC: 15.4 x10_2/uL
  KIDNEY_TOTAL: 0.5 g
  LIVER: 10.8 g
  ALT: 39 IU/L
  AST: 78.2 IU/L
  BUN: 18.2 mg/dL
  CRE: 0.4 mg/dL
  Ca: 10.6 mg/dL
  Cl: 103.2 meq/L
  DBIL: 0.01 mg/dL
  GLC: 238.8 mg/dL
  IP: 6.6 mg/dL
  K: 4.2 meq/L
  LDH: 83.4 IU/L
  Na: 138 meq/L
  PL: 177.6 mg/dL
  RALB: 4.6 g/dL
  TBIL: 0.032 mg/dL
  TC: 105.6 mg/dL
  TP: 6.5 g/dL
  gamma-GTP: 0.8 IU/L
[5]
  TERMINAL_BW: 218.5 g
  Bas: 0%
  Eos: 1.2%
  Fbg: 231 mg/dL
  Hb: 13.8 g/dL
  Ht: 42.2%
  Lym: 13.8%
  MCHC: 32.8%
  MCV: 63.1 fL
  Mono: 7.2%
  Neu: 78.4%
  Plat: 129.6 x10_4/uL
  RBC: 667.6 x10_4/ul
  Ret: 4.6%
  WBC: 26.2 x10_2/uL
  KIDNEY_TOTAL: 0.3 g
  LIVER: 14.3 g
  ALT: 52.8 IU/L
  AST: 102.2 IU/L
  BUN: 19.2 mg/dL
  CRE: 0.5 mg/dL
  Ca: 11.2 mg/dL
  Cl: 99.8 meq/L
  DBIL: 0.018 mg/dL
  GLC: 273.2 mg/dL
  IP: 6.7 mg/dL
  K: 4.6 meq/L
  Na: 138.8 meq/L
  PL: 260.8 mg/dL
  RALB: 4.6 g/dL
  TBIL: 0.042 mg/dL
  TC: 120.4 mg/dL
  TP: 6.5 g/dL
  gamma-GTP: 0.4 IU/L
